In patent publication US20060083790A1, “Combination of an ibat inhibitor and a metal salt for the treatment of diarrhoea” (priority 2002, published 2006):
Where two headings read alike, the source gives them in different places.

How the values were obtained:
[1] = dog
Description: The IBAT inhibitor is dosed orally at a dose that will cause diarrhoea, for example 25-50 μmol/kg. The metal salt is then introduced into the colon, through the fistulae, to see if the diarrhoea can be prevented. The dose of the metal salt varies and can be determined after analysing the bile acid concentration in faeces from dogs having been exposed to the same dose of the IBAT inhibitor.
A solution of an BAT inhibitor was administered directly into the stomach of the dog via an orogastric tube (t=0 hours). The dog was fed 30 minutes after the administration of the IBAT inhibitor (t=0.5 hours).
Faeces was collected during the first 8 hours after administration, and the time for each bowel movement was recorded. Each faeces sample was homogenized with a high-shear mixer and, subsequently, centrifuged in order to separate the solid material from the faecal water phase. The faecal water was collected and analysed with respect to bile acid content. The amount of bile acid in the faecal water was related to the amount of solid material in each faeces sample.

[2] = for Absorbance (taurocholate concentration after the enzymatic colour reaction): pH 6.5, supernatant
Description: A solution simulating the human intestinal fluid in the fasted state, FaSSIF, was prepared by dissolving the following components in deionised water.
The pH was adjusted to 6.5.
A separate solution of calcium chloride was prepared by dissolving 149.2 mM of the salt in deionised water.
5.0 ml of FaSSIF was added to each of 7 glass vials. A known volume, varying from 0 to 0.5 ml, of the calcium chloride solution was added to each vial. Each sample was inspected visually immediately after the calcium chloride addition.
A volume of 1.0 ml was withdrawn from each sample and centrifuged for 20 mins at 14 000 rpm. The clear supernatant of each sample was collected and analysed with respect to bile acid content. The analyses were carried out using a bile acid analysis kit which employs an enzymatic colour reaction. The concentration of bile acid is proportional to the colour intensity which is determined by spectrophotometry.

[3] = for Concentration of bile acids: pH 7.4, supernatant
Description: A solution containing a mixture of bile acids was prepared by dissolving the following components in deionised water:
The pH was adjusted to 7.4.
A calcium chloride solution was prepared by dissolving the following components in deionised water:
2.0 ml of the bile acid solution was added to each of 6 glass vials. A known volume, varying from 0 to 300 μl, of the calcium chloride solution was added to each vial. Each sample was inspected visually immediately after the calcium chloride addition. 1.5 ml of each sample was transferred into a centrifugation tube and centrifuged for 20 mins at 14 000 rpm. The clear supernatant was collected and analysed with respect to bile acid content. The analyses were carried out using a bile acid analysis kit which employs an enzymatic colour reaction. The concentration of bile acid is proportional to the colour intensity which is determined by spectrophotometry.

[4] = 200 mg crystalline calcium phosphate in 10 ml, initial DC 1-20 mM, pH 7.4, all samples
Description: A stock solution of sodium deoxycholate (DC) was prepared by dissolving the following substances in deionised water:
(§1) The pH was adjusted to 7.4 with sodium hydroxide.
(§2) A similar buffer solution with the same content, except for the bile acid was also prepared.
The resulting initial DC concentrations in the samples were 1-20 mM. The samples were equilibrated for several hours. The solid material in the samples were removed by centrifugation and/or filtration, and the obtained clear supernatants were analysed with respect to DC content. The analyses were carried out by HPLC.

[5] = 200 mg crystalline calcium phosphate in 10 ml, initial GDC 1-15 mM, pH 7.4, all samples
Description: A stock solution of sodium glycodeoxycholate (GDC) was prepared by dissolving the following substances in deionised water:
as §1, §2
The resulting initial GDC concentrations in the samples were 1-15 mM. The samples were equilibrated for several hours. The solid material in the samples were removed by centrifugation and/or filtration, and the obtained clear supernatants were analysed with respect to GDC content. The analyses were carried out by HPLC.

[6] = with increasing added amount of calcium chloride

Molecule | Bile acid concentration in faecal water ([1]; IBAT inhibitor into the stomach at t=0, intracolonic calcium chloride at t=1 hour, as long as calcium chloride is present in the colon) | Time after which most of the calcium chloride has been removed from the colon ([1]; intracolonic administration, removed by absorption or by bowel movements) | Absorbance (taurocholate concentration after the enzymatic colour reaction) ([2]; 7.5 μmol calcium chloride added to 5.0 ml FaSSIF) | Absorbance (taurocholate concentration after the enzymatic colour reaction) ([2]; 14.9 μmol calcium chloride added to 5.0 ml FaSSIF) | Absorbance (taurocholate concentration after the enzymatic colour reaction) ([2]; 22.4 μmol calcium chloride added to 5.0 ml FaSSIF) | Absorbance (taurocholate concentration after the enzymatic colour reaction) ([2]; 29.8 μmol calcium chloride added to 5.0 ml FaSSIF) | Absorbance (taurocholate concentration after the enzymatic colour reaction) ([2]; 44.8 μmol calcium chloride added to 5.0 ml FaSSIF) | Absorbance (taurocholate concentration after the enzymatic colour reaction) ([2]; 74.6 μmol calcium chloride added to 5.0 ml FaSSIF) | Visual inspection immediately after calcium chloride addition ([2]; FaSSIF, all samples with calcium chloride) | Concentration of taurocholate in the aqueous solution, trend [2, 6] | Concentration of bile acids ([3]; 3.0 μmol calcium chloride added to 2.0 ml bile acid solution) [mM] | Concentration of bile acids ([3]; 6.0 μmol calcium chloride added to 2.0 ml bile acid solution) [mM] | Concentration of bile acids ([3]; 12.0 μmol calcium chloride added to 2.0 ml bile acid solution) [mM] | Concentration of bile acids ([3]; 30.0 μmol calcium chloride added to 2.0 ml bile acid solution) [mM] | Concentration of bile acids ([3]; 60.1 μmol calcium chloride added to 2.0 ml bile acid solution) [mM] | Visual inspection immediately after calcium chloride addition ([3]; bile acid mixture, all samples with calcium chloride) | Concentration of bile acids in the aqueous solution, trend [3, 6] | DC concentration in supernatant (HPLC) [4] | GDC concentration in supernatant (HPLC) [5]
[Ca+2].[Cl-].[Cl-] [calcium chloride] | relatively constant | approximately 3.5 hours | 0.0933 | 0.0890 | 0.0843 | 0.0783 | 0.0735 | 0.0718 | A precipitate was formed in all samples | decreased with increasing added amount of calcium chloride | 2.2 | 2.1 | 1.9 | 0.8 | 0.7 | a precipitate was formed in all samples | decreased with increasing added amount of calcium chloride |  | 
calcium phosphate |  |  |  |  |  |  |  |  |  |  |  |  |  |  |  |  |  | reduced by the presence of calcium phosphate in all samples | reduced by the presence of calcium phosphate in all samples
